Test results as given in PubChem BioAssay AID2060619 (Molecular Pharmacology Branch, DTP, NCI, 2025).

Tested on: 323965-272-R-J2-PDC complex spheroid viability
Assay: Anticancer human tumor 323965-272-R-J2-PDC patient-derived pancreatic carcinoma cell line growth inhibition [CLK]
Conditions: for IC50: curve of first compound; for viability, T/C: stronger effect = lower value
Method in brief: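 Patient-derived tumor cells grown as complex spheroids with HUVEC endothelial cells and mesenchymal stem cells, treated with drug combinations. Concentrations descend in half-log steps from near clinical Cmax, or from 10 microM if Cmax unknown.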

[1] = second compound 0.0316 µM, first compound 0.0316 µM
[2] = second compound 0.0316 µM, first compound 0.1 µM
[3] = second compound 0.0316 µM, first compound 0.316 µM
[4] = second compound 0.0316 µM, first compound 1 µM
[5] = second compound 0.0316 µM, first compound 3.16 µM
[6] = second compound 0.0316 µM, first compound 10 µM
[7] = second compound 0.1 µM, first compound 0.0316 µM
[8] = second compound 0.1 µM, first compound 0.1 µM
[9] = second compound 0.1 µM, first compound 0.316 µM
[10] = second compound 0.1 µM, first compound 1 µM
[11] = second compound 0.1 µM, first compound 3.16 µM
[12] = second compound 0.1 µM, first compound 10 µM
[13] = second compound 0.316 µM, first compound 0.0316 µM
[14] = second compound 0.316 µM, first compound 0.1 µM
[15] = second compound 0.316 µM, first compound 0.316 µM
[16] = second compound 0.316 µM, first compound 1 µM
[17] = second compound 0.316 µM, first compound 3.16 µM
[18] = second compound 0.316 µM, first compound 10 µM
[19] = second compound 1 µM, first compound 0.0316 µM
[20] = second compound 1 µM, first compound 0.1 µM
[21] = second compound 1 µM, first compound 0.316 µM
[22] = second compound 1 µM, first compound 1 µM
[23] = second compound 1 µM, first compound 3.16 µM
[24] = second compound 1 µM, first compound 10 µM
[25] = second compound 3.16 µM, first compound 0.0316 µM
[26] = second compound 3.16 µM, first compound 0.1 µM
[27] = second compound 3.16 µM, first compound 0.316 µM
[28] = second compound 3.16 µM, first compound 1 µM
[29] = second compound 3.16 µM, first compound 3.16 µM
[30] = second compound 3.16 µM, first compound 10 µM
[31] = second compound 10 µM, first compound 0.0316 µM
[32] = second compound 10 µM, first compound 0.1 µM
[33] = second compound 10 µM, first compound 0.316 µM
[34] = second compound 10 µM, first compound 1 µM
[35] = second compound 10 µM, first compound 3.16 µM
[36] = second compound 10 µM, first compound 10 µM
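Note: spheroids exposed to agents for seven days before readout.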
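Throughout, for viability, T/C: percent of DMSO vehicle control wells so 100% = untreated growth.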

C#Cc1c(F)ccc2cc(O)cc(-c3ncc4c(N5CC6CCC(C5)N6)nc(OCC56CCCN5CC(F)C6)nc4c3F)c12 (centres undefined) + CN1CCN(c2cc(C(=O)Nc3cc4cc(-c5cnn(C)c5)ccc4cn3)ccn2)CC1
IC50 (second compound 0.0316 µM): > 10000 nM
IC50 (second compound 0.1 µM): 3050 nM
IC50 (second compound 0.316 µM): < 31.6 nM
IC50 (second compound 1 µM): < 31.6 nM
IC50 (second compound 3.16 µM): < 31.6 nM
IC50 (second compound 10 µM): < 31.6 nM
viability, T/C [1]: 101%
viability, T/C [2]: 101%
viability, T/C [3]: 101%
viability, T/C [4]: 95.8%
viability, T/C [5]: 67.1%
viability, T/C [6]: 50.9%
viability, T/C [7]: 68.8%
viability, T/C [8]: 73.2%
viability, T/C [9]: 71.1%
viability, T/C [10]: 63.3%
viability, T/C [11]: 49.9%
viability, T/C [12]: 42.6%
viability, T/C [13]: 28.4%
viability, T/C [14]: 25.6%
viability, T/C [15]: 24.8%
viability, T/C [16]: 22.9%
viability, T/C [17]: 17.8%
viability, T/C [18]: 15.1%
viability, T/C [19]: 3.55%
viability, T/C [20]: 3.52%
viability, T/C [21]: 3.35%
viability, T/C [22]: 3.07%
viability, T/C [23]: 2.52%
viability, T/C [24]: 2.87%
viability, T/C [25]: 3.72%
viability, T/C [26]: 4.19%
viability, T/C [27]: 3.39%
viability, T/C [28]: 3.07%
viability, T/C [29]: 3.51%
viability, T/C [30]: 5.09%
viability, T/C [31]: 4.24%
viability, T/C [32]: 4.08%
viability, T/C [33]: 5.09%
viability, T/C [34]: 3.16%
viability, T/C [35]: 3.48%
viability, T/C [36]: 3.19%

C=C(F)C(=O)N1CCN(c2nc(OCC3CCCN3C)nc3c2CCN(c2cccc4cccc(Cl)c24)C3)CC1CC#N (centres undefined) + CNC(=O)c1ccc(Nc2nc(OC3CCCC3)c3c(-c4ccc5nc(C)oc5c4)c[nH]c3n2)c(OC)c1
IC50 (second compound 0.0316 µM): 7910 nM
IC50 (second compound 0.1 µM): 31.6 nM
IC50 (second compound 0.316 µM): < 31.6 nM
IC50 (second compound 1 µM): < 31.6 nM
IC50 (second compound 3.16 µM): < 31.6 nM
IC50 (second compound 10 µM): < 31.6 nM
viability, T/C [1]: 69.7%
viability, T/C [2]: 49.6%
viability, T/C [3]: 52.8%
viability, T/C [4]: 78%
viability, T/C [5]: 85.2%
viability, T/C [6]: 17.7%
viability, T/C [7]: 47.7%
viability, T/C [8]: 40.4%
viability, T/C [9]: 39.6%
viability, T/C [10]: 48.5%
viability, T/C [11]: 64%
viability, T/C [12]: 9.35%
viability, T/C [13]: 36.1%
viability, T/C [14]: 28.4%
viability, T/C [15]: 32.9%
viability, T/C [16]: 33.4%
viability, T/C [17]: 45.2%
viability, T/C [18]: 1.42%
viability, T/C [19]: 25.8%
viability, T/C [20]: 22%
viability, T/C [21]: 25.6%
viability, T/C [22]: 27.8%
viability, T/C [23]: 31%
viability, T/C [24]: 0.63%
viability, T/C [25]: 26.2%
viability, T/C [26]: 20.6%
viability, T/C [27]: 22.1%
viability, T/C [28]: 23.6%
viability, T/C [29]: 28.9%
viability, T/C [30]: 0.56%
viability, T/C [31]: 23.2%
viability, T/C [32]: 20.8%
viability, T/C [33]: 21.2%
viability, T/C [34]: 28.3%
viability, T/C [35]: 24.8%
viability, T/C [36]: 0.31%
